Data taken from US10301314B2, “Compounds and methods for the prevention and treatment of tumor metastasis and tumorigenesis” (The United States of America, as represented by the …, priority 2011, dated 2019).
Read-outs that look alike come from different tables or passages of the source.

Legend:
[1] = test system: PC3M reporter cell line stably expressing the PTB-GFP; experiment: ATP quantitation assay (ATPLite); assay type: cell-based, human; conditions: Table 4, PC3M cells, 24 hrs incubation; for IC50: Homo sapiens, PC-3M
[2] = test system: PC3M cell line that stably expresses GFP-PTB to mark PNCs; experiment: High content assay for PNC detection (reduction of PNC prevalence); assay type: cell-based, human; conditions: PC3M GFP-PTB cells; for AC50 / IC50: Homo sapiens, PC-3M; for AC50: Table 3; for IC50 / PNC IC50(μM): Table 4, 16 hrs incubation
PC3M cells [3] = experiment: Tumor cell migration/invasion assay through 3D fibrillar collagen (Iuvo Single Microchannel Plate); assay type: cell-based; conditions: Homo sapiens, PC-3M, 120 h, 5 days
Description: High-content tumor cell migration assays in 3-dimensional extracellular matrices are powerful tools for modeling and understanding the biology of this critical step in the process of metastasis. However, most of the available methods are not amenable to the throughput required by studies of comparative pharmacology or small scale screening. For this reason, compounds were tested in BellBrook Labs™ automated high-content tumor cell invasion assays. A standard screening-sized plate with an array of embedded microchannels was designed and constructed from common thermoplastics.
PC3M cells were tested for invasion through 3D fibrillar collagen in the luvo Single Microchannel Plate, in the presence of varying levels of test compounds. Channels were prefilled with 820 nL of 3-dimensional type I collagen at 1 mg/mL, through the input port. Following gelation, 2,000 PC3M cells were seeded into the output port using growth media (RPMI+10% FBS with antibiotics) in a volume of 5 μL. Cells were incubated in a 37° C. incubator inside a humidified container to control evaporation (Bioassay dish, Corning). Media, including test compounds, was changed daily for 5 days. At the end of the assay, cells were fixed and stained with Hoechst 33342, then imaged with 4× objective under epifluorescence. Under these conditions, cells across the 140 μm height range of the microchannel can be reliably identified. Test compounds were serially diluted by a factor of 3 to produce 10 concentrations ranging from 50 or 100 μM to 2.5 nM. All assays were conducted in the presence of 0.1% DMSO. Four replicates were performed for all test concentrations. Each plate had 4 dose response curves, as well as 16 channels with no compound and 16 channels with 50 μM blebbistatin (positive control). Analysis was done by automatically cropping each image at the right edge of the channel and counting cells via the ‘count nuclei’ function on Metamorph (Molecular Devices). Non-linear regression analysis was performed with GraphPad Prism.

PC3M cells [4] = experiment: Soft agar colony formation assay (anchorage independent growth); assay type: cell-based, human; conditions: after 14 days; 3.8, 18.6 nM
Description: Compound 2 was tested for its ability to affect anchorage independent growth in a soft agar assay, a stringent method to detect malignant transformation of cells in vitro. […] The left hand side of FIG. 1 illustrates a histogram representing the number and size of PC3M soft agar colonies after 14 days of treatment with compound 2 at two different concentrations. A clear reduction of the number of colonies of PC3M cells was observed, particularly at a compound concentration of 18.6 nM. The right hand side of FIG. 1 illustrates two representative images taken at two different regions of the soft agar medium after treatment with DMSO (vehicle) (top row), compound 2 at 3.8 nM (middle row), and compound 2 at 18.6 nM (bottom row).

[5] = PC3M cells in output port, read-out: Proliferation output port IC50
[6] = PC3M cells, 3D type I collagen, read-out: Invasion cell # IC50

Row | SMILES | IC50 [1] | IC50 [2] | ATP IC50(μM) [1] | PNC IC50(μM) [2] | also measured
1 | N=c1c2c(-c3ccccc3)c(-c3ccccc3)n(Cc3ccccc3)c2ncn1C1CCOCC1 [Compound 1] | 152 µM | 30 nM |  |  | AC50 [2]: 90 nM; IC50 (PC3M cells [3]; [5]): 5.01 µM; IC50 (PC3M cells [3]; [6]): 3.16 µM
2 | N=c1c2c(-c3ccccc3)c(-c3ccccc3)n(Cc3ccccc3)c2ncn1[C@H]1CC[C@H](O)CC1 [Compound 2, trans-4-(7-Benzyl-4-imino-5,6-diphenyl-4,7-dihydro-3H-pyrrolo[2,3-d]pyrimidin-3-yl)cyclohexanol] | 19.2 µM | 24 nM |  |  | AC50 [2]: 400 nM; IC50 (PC3M cells [3]; [5]): 3.98 µM; IC50 (PC3M cells [3]; [6]): 3.16 µM; cell viability in soft agar assay (PC3M cells [4]): no impact on cell viability; number of PC3M soft agar colonies (PC3M cells [4]): dose dependent reduction in the number of colonies
3 | OCCNc1ncnc2c1c(-c1ccccc1)c(-c1ccccc1)n2Cc1ccco1 [Compound 137] |  |  | inactive | inactive | 
4 | N=c1c2c(-c3ccccc3)cn(Cc3ccccc3)c2ncn1Cc1ccco1 [Compound 138] | 60.7 µM |  |  | inactive | 
5 | N=c1c2c(-c3ccccc3)cn(Cc3ccccc3)c2ncn1[C@H]1CC[C@H](O)CC1 [Compound 139] |  |  | inactive | inactive | 
6 | N=c1c2c(-c3ccccc3)cn(Cc3ccccc3)c2ncn1CCO [Compound 140] |  |  | inactive | inactive | 
7 | CC(C)Cn1cnc2c(c(-c3ccccc3)c(-c3ccccc3)n2Cc2ccco2)c1=N [Compound 141] | 20.4 µM | 15800 nM |  |  | 
